In US20220351806A1, “Biomarker Panels for Guiding Dysregulated Host Response Therapy” (Endpoint Health Inc., priority 2019, published 2022):

Test system: sepsis patients
Test: VANISH trial survival analysis, hydrocortisone vs placebo, by patient subtype classifier
Format: in vivo, human
Design: mortality reduction in the placebo group in comparison to the hydrocortisone group / Mortality rate: concentration or dose not given beside the values
Conditions: for Alive / Dead / Mortality rate / Survival rate / Mortality Reduction Group: VANISH trial; for Alive / Dead / Mortality rate / Survival rate: Hydro group; for 28-day mortality reduction in the placebo group in comparison to the hydrocortisone group: VANISH; for Mortality Reduction Group: arm with lower mortality, Hydro vs Placebo
Text: The test expression data from each trial were normalized by the platform normalization matrix described above^13 so that the test data were more consistent with the training data. The classifiers (e.g., the Full Model, the SS Model, the S Model, and the P Model) were then applied to the normalized data such that the patients were classified into A, B, and C subtypes. […] Therefore, each sample in the target samples was normalized independently with the normalization matrix of the sample array platform.
Survival and mortality rates were calculated at day 28 because survival and mortality labels at other time points were not available. […] Binomial and Chi-squared with continuity correction tests were used to test for the significance of these differences.
In one example, previously identified subtypes of sepsis patients were used to tune the model to identify these type A and B patients. Two distinct sepsis response signatures (SRS1 and SRS2) were identified in five public studies (E-MTAB-4421, E-MTAB-4451, E-MTAB-5273, E-MTAB-5274, and E-MTAB-7581), where HumanHT-12 v4 BeadChip were used to generate the gene expression profiles of the patient samples. The processed data of those five studies were downloaded and processed using R programming language and software environment for statistical analysis (version 3.6.3). The Bioconductor annotation package, illuminaHumanv4.db (version 1.26.0), was used to annotate microarray probes and expression levels of genes were determined by each individual probe or mean of probes belonging to the same gene. In order to remove cohort biases, the Bioconductor package, limma (version 3.42.2), was used to remove batch effects. Using ss.b2 panel genes, subtype A, B, and C scores were calculated by geometric mean of up/down genes.
To build the classifier, we defined E-MTAB-4421, E-MTAB-4451, E-MTAB-5273, and E-MTAB-5274 as the training dataset and VANISH (E-MTAB-7581) as the testing dataset. We used features (subtype A, B, and C scores) and class labels (SRS1 vs SRS2) in the training dataset to build a machine-learned classifier based on support-vector machine (SVM) method. SVM is a supervised machine learning method for classification analysis. The algorithm finds a single or a set of hyperplanes that maximize the margin among subtype A, B, and C scores. In order to capture non-linear data, the kernel function was used. R package e1071 was used to build the SVM classifier with following parameters: method=“C-classification”, kernal=“radial”, gamma=0.1, and cost=10.
The accuracy of the classifiers was evaluated by Leave-One-Out (LOO) cross-validation over the training dataset. Also the classifier was applied to 117 controlled samples from VANISH trial.
In addition to the SVM-method, thresholds can be employed to scores in order to define A vs. B labels. […] Therefore we applied a heuristic threshold (threshold=0) to subtype A and B scores to classify SRS1-like and SRS2-like in VANISH: SRS2-like label was assigned to samples with subtype A score >0 and subtype B score <0 and SRS1-like label was assigned to the rest of samples.
Besides the heuristic threshold, we also derived the thresholds for subtype A and B scores using the training dataset. Same as the SVM method, we defined E-MTAB-4421, E-MTAB-4451, E-MTAB-5273, and E-MTAB-5274 as the training dataset and VANISH (E-MTAB-7581) as the testing dataset.

[1] = day 28, Full Model, subtypes CA
[2] = day 28, SS.B2 Model (SVM), Total
[3] = day 28, SS.B2 Model (SVM), type A (SRS2-like)
[4] = day 28, SS.B2 Model (SVM), type B (SRS1-like)

Q: `C[C@]12CCC(=O)C=C1CC[C@@H]1[C@@H]2[C@@H](O)C[C@@]2(C)[C@H]1CC[C@]2(O)C(=O)CO` [Hydro, hydrocortisone] was tested. Which Alive (day 28, Full Model, subtype C) did it give?
A: 11

Q: And the Dead (day 28, Full Model, subtype C)?
A: 8

Q: What about the Mortality rate (day 28, Full Model, subtype C) of the same compound?
A: 42.1%

Q: What about the Survival rate (day 28, Full Model, subtype C) of the same compound?
A: 57.9%

Q: And the Alive [1]?
A: 20

Q: And the Dead [1]?
A: 16

Q: And the Mortality rate [1]?
A: 44.4%

Q: And the Survival rate [1]?
A: 55.6%

Q: And the Alive (day 28, P Model, Total)?
A: 36

Q: What about the Dead (day 28, P Model, Total) of the same compound?
A: 22

Q: And the Mortality rate (day 28, P Model, Total)?
A: 37.9%

Q: And the Survival rate (day 28, P Model, Total)?
A: 62.1%

Q: And the Alive (day 28, P Model, subtype A)?
A: 9

Q: What about the Dead (day 28, P Model, subtype A) of the same compound?
A: 10

Q: And the Mortality rate (day 28, P Model, subtype A)?
A: 52.6%

Q: And the Survival rate (day 28, P Model, subtype A)?
A: 47.4%

Q: And the Alive (day 28, P Model, subtype B)?
A: 23

Q: And the Dead (day 28, P Model, subtype B)?
A: 8

Q: What about the Mortality rate (day 28, P Model, subtype B) of the same compound?
A: 25.8%

Q: And the Survival rate (day 28, P Model, subtype B)?
A: 74.2%

Q: What about the Alive (day 28, P Model, subtype C) of the same compound?
A: 4

Q: What about the Dead (day 28, P Model, subtype C) of the same compound?
A: 4

Q: What about the Mortality rate (day 28, P Model, subtype C) of the same compound?
A: 50.0%

Q: And the Survival rate (day 28, P Model, subtype C)?
A: 50.0%

Q: What about the Alive (day 28, P Model, subtypes CA) of the same compound?
A: 13

Q: What about the Dead (day 28, P Model, subtypes CA) of the same compound?
A: 14

Q: What about the Mortality rate (day 28, P Model, subtypes CA) of the same compound?
A: 51.9%

Q: What about the Survival rate (day 28, P Model, subtypes CA) of the same compound?
A: 48.1%

Q: What about the Alive (day 28, S Model, Total) of the same compound?
A: 20

Q: And the Dead (day 28, S Model, Total)?
A: 13

Q: And the Mortality rate (day 28, S Model, Total)?
A: 39.4%

Q: What about the Survival rate (day 28, S Model, Total) of the same compound?
A: 60.6%

Q: What about the Alive (day 28, S Model, subtype A) of the same compound?
A: 16

Q: And the Dead (day 28, S Model, subtype A)?
A: 9

Q: And the Mortality rate (day 28, S Model, subtype A)?
A: 36.0%

Q: And the Survival rate (day 28, S Model, subtype A)?
A: 64.0%

Q: And the Alive (day 28, S Model, subtype B)?
A: 12

Q: What about the Dead (day 28, S Model, subtype B) of the same compound?
A: 9

Q: And the Mortality rate (day 28, S Model, subtype B)?
A: 42.9%

Q: What about the Survival rate (day 28, S Model, subtype B) of the same compound?
A: 57.1%

Q: What about the Alive (day 28, S Model, subtype C) of the same compound?
A: 8

Q: And the Dead (day 28, S Model, subtype C)?
A: 4

Q: What about the Survival rate (day 28, S Model, subtype C) of the same compound?
A: 66.7%

Q: And the Alive (day 28, S Model, subtypes CA)?
A: 8

Q: And the Dead (day 28, S Model, subtypes CA)?
A: 4

Q: And the Survival rate (day 28, S Model, subtypes CA)?
A: 66.7%

Q: What about the Alive (day 28, SS Model, Total) of the same compound?
A: 36

Q: And the Dead (day 28, SS Model, Total)?
A: 22

Q: What about the Mortality rate (day 28, SS Model, Total) of the same compound?
A: 37.9%

Q: What about the Survival rate (day 28, SS Model, Total) of the same compound?
A: 62.1%

Q: What about the Alive (day 28, SS Model, subtype A) of the same compound?
A: 15

Q: And the Dead (day 28, SS Model, subtype A)?
A: 9

Q: And the Mortality rate (day 28, SS Model, subtype A)?
A: 37.5%

Q: What about the Survival rate (day 28, SS Model, subtype A) of the same compound?
A: 62.5%

Q: What about the Alive (day 28, SS Model, subtype B) of the same compound?
A: 5

Q: And the Dead (day 28, SS Model, subtype B)?
A: 5

Q: And the Mortality rate (day 28, SS Model, subtype B)?
A: 50.0%

Q: What about the Survival rate (day 28, SS Model, subtype B) of the same compound?
A: 50.0%

Q: What about the Alive (day 28, SS Model, subtype C) of the same compound?
A: 16

Q: And the Dead (day 28, SS Model, subtype C)?
A: 8

Q: What about the Survival rate (day 28, SS Model, subtype C) of the same compound?
A: 66.7%

Q: What about the Alive (day 28, SS Model, subtypes CA) of the same compound?
A: 31

Q: And the Dead (day 28, SS Model, subtypes CA)?
A: 17

Q: What about the Survival rate (day 28, SS Model, subtypes CA) of the same compound?
A: 64.6%

Q: What about the Alive [2] of the same compound?
A: 36

Q: And the Dead [2]?
A: 22

Q: What about the Mortality rate [2] of the same compound?
A: 37.9%

Q: And the Survival rate [2]?
A: 62.1%

Q: And the Alive [3]?
A: 22

Q: What about the Dead [3] of the same compound?
A: 14

Q: And the Mortality rate [3]?
A: 38.9%

Q: And the Survival rate [3]?
A: 61.1%

Q: And the Alive [4]?
A: 14

Q: And the Dead [4]?
A: 8

Q: And the Mortality rate [4]?
A: 36.4%

Q: What about the Survival rate [4] of the same compound?
A: 63.6%

Q: And the “28-day mortality reduction in the placebo group in comparison to the hydrocortisone group” value (SRS2-like patients by ROC-derived thresholds (A threshold=-0.2664, B threshold=0.3179))?
A: 81.7%

Q: And the “28-day mortality reduction in the placebo group in comparison to the hydrocortisone group” value (SRS2-like patients by heuristic threshold=0 (A score >0, B score <0))?
A: 85.2%

Q: What about the “Mortality Reduction Group” value (day 28, Full Model, Total) of the same compound?
A: Placebo

Q: And the “Mortality Reduction Group” value (day 28, Full Model, subtype A)?
A: Placebo

Q: What about the “Mortality Reduction Group” value (day 28, Full Model, subtype B) of the same compound?
A: Hydro

Q: What about the “Mortality Reduction Group” value (day 28, Full Model, subtype C) of the same compound?
A: Placebo

Q: And the “Mortality Reduction Group” value [1]?
A: Placebo

Q: And the “Mortality Reduction Group” value (day 28, P Model, Total)?
A: Placebo

Q: And the “Mortality Reduction Group” value (day 28, P Model, subtype A)?
A: Placebo

Q: What about the “Mortality Reduction Group” value (day 28, P Model, subtype B) of the same compound?
A: Hydro

Q: And the “Mortality Reduction Group” value (day 28, P Model, subtype C)?
A: Placebo

Q: What about the “Mortality Reduction Group” value (day 28, P Model, subtypes CA) of the same compound?
A: Placebo

Q: What about the “Mortality Reduction Group” value (day 28, SS Model, Total) of the same compound?
A: Placebo

Q: What about the “Mortality Reduction Group” value (day 28, SS Model, subtype A) of the same compound?
A: Placebo

Q: And the “Mortality Reduction Group” value (day 28, SS Model, subtype B)?
A: Placebo

Q: And the “Mortality Reduction Group” value (day 28, SS Model, subtype C)?
A: Placebo

Q: What about the “Mortality Reduction Group” value (day 28, SS Model, subtypes CA) of the same compound?
A: Placebo

Q: What about the “Mortality Reduction Group” value [2] of the same compound?
A: Placebo

Q: And the “Mortality Reduction Group” value [3]?
A: Placebo

Q: What about the “Mortality Reduction Group” value [4] of the same compound?
A: Hydro

Q: And the “lower mortality in the placebo group when compared to the hydrocortisone therapy group” value (sepsis patients, 28-day, subtype A, Full Model)?
A: 64.6%

Q: What about the “lower mortality in the placebo group when compared to the hydrocortisone therapy group” value (sepsis patients, 28-day, subtype A, P Model) of the same compound?
A: 77.6%

Q: What about the “lower mortality in the placebo group when compared to the hydrocortisone therapy group” value (sepsis patients, 28-day, subtype A, S Model) of the same compound?
A: 86.1%

Q: What about the “lower mortality in the placebo group when compared to the hydrocortisone therapy group” value (sepsis patients, 28-day, subtype A, SS Model) of the same compound?
A: 86.0%

Q: What about the “lower mortality in the hydrocortisone group when compared to the placebo group” value (sepsis patients, 28-day, subtype B, Full Model) of the same compound?
A: 35.2%

Q: What about the “lower mortality in the placebo group when compared to the hydrocortisone therapy group” value (sepsis patients, 28-day, subtype C, Full Model) of the same compound?
A: 56.8%
